In US8916557B2, “Substituted 4-Aryl-N-phenyl-1,3,5-triazin-2-amines” (Bayer Intellectual Property GmbH, priority 2011, dated 2014):

Key:
[1] = system: NCI-H460, human non-small cell lung carcinoma cells; assay: Proliferation assay (crystal violet), NCI-H460; assay type: cell-based; details: read-out: Inhibition of H460 cell proliferation (activity range)
Description: (§1) Cultivated tumour cells (NCI-H460, human non-small cell lung carcinoma cells, ATCC HTB-177; DU 145, hormone-independent human prostate carcinoma cells, ATCC HTB-81; HeLa-MaTu, human cervical carcinoma cells, EPO-GmbH, Berlin; HeLa-MaTu-ADR, multidrug-resistant human cervical carcinoma cells, EPO-GmbH, Berlin; HeLa human cervical tumour cells, ATCC CCL-2; Caco-2 human colorectal carcinoma, ATCC HTB-37; B16F10 mouse melanoma cells, ATCC CRL-6475) were plated at a density of 5000 cells/well (DU145, HeLa-MaTu-ADR), 3000 cells/well (NCI-H460, HeLa-MaTu, HeLa), 1500 cells/well (Caco-2), or 1000 cells/well (B16F10) in a 96-well multititer plate in 200 μL of their respective growth medium supplemented 10% fetal calf serum. After 24 hours, the cells of one plate (zero-point plate) were stained with crystal violet (see below), while the medium of the other plates was replaced by fresh culture medium (200 μl), to which the test substances were added in various concentrations (0 μM, as well as in the range of 0.001-10 μM; the final concentration of the solvent dimethyl sulfoxide was 0.5%). The cells were incubated for 4 days in the presence of test substances. Cell proliferation was determined by staining the cells with crystal violet: the cells were fixed by adding 20 μl/measuring point of an 11% glutaric aldehyde solution for 15 minutes at room temperature. After three washing cycles of the fixed cells with water, the plates were dried at room temperature. The cells were stained by adding 100 μl/measuring point of a 0.1% crystal violet solution (pH 3.0). After three washing cycles of the stained cells with water, the plates were dried at room temperature. The dye was dissolved by adding 100 μl/measuring point of a 10% acetic acid solution. The extinction was determined by photometry at a wavelength of 595 nm. The change of cell number, in percent, was calculated by normalization of the measured values to the extinction values of the zero-point plate (=0%) and the extinction of the untreated (0 μm) cells (=100%). The IC50 values were determined by means of a 4 parameter fit.

[2] = system: HeLa-MaTu-ADR, multidrug-resistant human cervical carcinoma cells; assay: Proliferation assay (crystal violet), HeLa-MaTu-ADR; assay type: cell-based; details: read-out: Inhibition of HeLa/MaTu/ADR cell proliferation
Description: as §1

CDK9/CycT1 = biological target: T1, CDK9/CycT1 (Homo sapiens, UniProt P50750); assay: CDK9/CycT1 kinase assay (TR-FRET); assay type: biochemical; details: Method 1, 10 μM ATP
T1 construct: Recombinant full-length His-tagged human CDK9 and CycT1; His; purchased Invitrogen PV4131; host or cells: insect cells
In short: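 Full-length His-tagged human CDK9/CycT1 (insect-cell expressed), 15 min compound pre-incubation, then 25 min at 22 °C with 10 µM ATP (final) and 1 µM biotinylated peptide (final) in Tris pH 8.0/MgCl2 buffer. Phospho-substrate detected by TR-FRET (anti-RB pSer807/pSer811, Eu anti-mouse IgG, streptavidin-XL665); 665/622 nm emission ratio as read-out.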

[3] = system: HeLa human cervical tumour cells; assay: Proliferation assay (crystal violet), HeLa; assay type: cell-based; details: read-out: Inhibition of HeLa cell proliferation
[4] = system: B16F10 mouse melanoma cells; assay: Proliferation assay (crystal violet), B16F10; assay type: cell-based; details: B16-F10, read-out: Inhibition of B16F10 cell proliferation
Description: as §1

[5] = system: DU 145, hormone-independent human prostate carcinoma cells; assay: Proliferation assay (crystal violet), DU 145; assay type: cell-based; details: DU145 cells, read-out: Inhibition of DU145 cell proliferation

T1 sequence (P50750 whole entry): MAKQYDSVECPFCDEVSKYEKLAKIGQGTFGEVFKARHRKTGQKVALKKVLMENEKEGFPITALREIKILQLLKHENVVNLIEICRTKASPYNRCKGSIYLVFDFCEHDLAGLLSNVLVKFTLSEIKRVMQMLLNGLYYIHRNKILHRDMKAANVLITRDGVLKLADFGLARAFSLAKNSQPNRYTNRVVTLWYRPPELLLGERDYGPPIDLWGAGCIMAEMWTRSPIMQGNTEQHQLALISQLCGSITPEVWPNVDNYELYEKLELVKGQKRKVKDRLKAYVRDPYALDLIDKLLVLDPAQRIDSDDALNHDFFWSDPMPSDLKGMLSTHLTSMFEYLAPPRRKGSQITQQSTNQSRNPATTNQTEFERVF
T1 sequence (O60563 whole entry partner): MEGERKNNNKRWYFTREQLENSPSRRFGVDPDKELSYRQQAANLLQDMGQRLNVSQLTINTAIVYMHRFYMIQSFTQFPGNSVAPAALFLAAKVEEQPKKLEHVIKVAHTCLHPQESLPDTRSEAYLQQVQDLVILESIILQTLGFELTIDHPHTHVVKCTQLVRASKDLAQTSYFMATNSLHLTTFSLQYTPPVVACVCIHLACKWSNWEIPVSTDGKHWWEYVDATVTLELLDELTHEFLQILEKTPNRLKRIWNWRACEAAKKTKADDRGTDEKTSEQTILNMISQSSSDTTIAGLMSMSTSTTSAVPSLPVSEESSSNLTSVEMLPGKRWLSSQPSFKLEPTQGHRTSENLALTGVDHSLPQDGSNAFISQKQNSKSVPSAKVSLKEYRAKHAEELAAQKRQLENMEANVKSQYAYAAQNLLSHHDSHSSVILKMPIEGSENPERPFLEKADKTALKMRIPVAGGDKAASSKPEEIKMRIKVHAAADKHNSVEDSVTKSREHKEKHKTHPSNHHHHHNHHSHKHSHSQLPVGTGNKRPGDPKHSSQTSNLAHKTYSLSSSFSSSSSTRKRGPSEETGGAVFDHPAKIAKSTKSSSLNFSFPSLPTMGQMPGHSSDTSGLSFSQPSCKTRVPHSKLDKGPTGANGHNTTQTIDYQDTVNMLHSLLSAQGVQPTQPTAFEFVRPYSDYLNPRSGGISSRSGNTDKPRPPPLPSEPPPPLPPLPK

Row | IC50 [1] | IC50 [2] | IC50 (CDK9/CycT1) | IC50 [3] | IC50 [4] | IC50 [5] | Compound
1 | 0.37 µM | 0.35 µM | 0.003 µM | 0.36 µM | 0.39 µM | 0.42 µM | CS(=O)(=O)Cc1cccc(Nc2ncnc(-c3ccccc3OCc3cccc(Cl)c3)n2)c1 [Example 28, 4-{2-[(3-Chlorobenzyl)oxy]phenyl}-N-{3-[(methylsulfonyl)methyl]phenyl}-1,3,5-triazin-2-amine]
2 | 0.34 µM | 0.18 µM | 0.006 µM | 0.34 µM | 0.46 µM | 0.33 µM | COc1cc(F)ccc1-c1ncnc(Nc2ccc(F)c(CS(C)(=O)=O)c2)n1 [Example 33, 4-(4-Fluoro-2-methoxyphenyl)-N-{4-fluoro-3-[(methylsulfonyl)methyl]phenyl}-1,3,5-triazin-2-amine]
3 | 0.49 µM | 0.32 µM | 0.015 µM | 0.84 µM | 0.96 µM | 0.57 µM | CS(=O)(=O)Cc1cccc(Nc2ncnc(-c3ccc(F)cc3OCC3CC3)n2)c1 [Example 55, 4-[2-(Cyclopropylmethoxy)-4-fluorophenyl]-N-{3-[(methylsulfonyl)methyl]phenyl}-1,3,5-triazin-2-amine]

Row | Compound | IC50 [1] | IC50 [2] | IC50 (CDK9/CycT1) | IC50 [3] | IC50 [4] | IC50 [5]
4 | CCCCOc1cc(F)ccc1-c1ncnc(Nc2cccc(CS(C)(=O)=O)c2)n1 [Example 44, 4-(2-Butoxy-4-fluorophenyl)-N-{3-[(methylsulfonyl)-methyl]phenyl}-1,3,5-triazin-2-amine] | 0.44 µM | 0.32 µM | 0.009 µM | 0.34 µM | 0.57 µM | 0.52 µM
